In patent publication US11123398B2, “Chemotherapeutic combinations of cationic antimicrobial peptides and chemotherapeutics” (LYTIX BIOPHARMA AS, priority 2014, dated 2021):
Non-standard residues stand in square brackets, D forms with d. Residues, ends and D or L forms follow the SMILES beside them. dBip = N[C@H](Cc1ccc(-c2ccccc2)cc1)C(=O)O; Dip = N[C@H](C(=O)O)C(c1ccccc1)c1ccccc1

Legend:
[1] = system: Raji cell line; assay type: cell-based, human; details: 4 h
Description: (§1) Tumor cells were plated in 96-well flat-bottom microtitration plates (Nunc, Dutscher, Brumath, France) and incubated at 37° C. for 24 hours before treatment in 190 μl of drug-free and FBS-free culture medium.
(§2) Tumor cells were incubated for 4 hours with 10 concentrations of compounds in ¼ dilution step with a top dose of 400 μM (range 4×10^−4 to […]), with 1% (final concentration) Triton X-100 as positive control and FBS-free culture medium as negative control. The cells (190 μl) were incubated in a 200 μl final volume of FBS-free culture medium containing test substances at 37° C. under 5% CO2.
(§3) Three independent experiments were performed, each concentration being issued from quadruplicate. Control cells were treated with vehicle alone. At the end of treatments, the cytotoxic activity was evaluated by a MTS assay (see § 3.3 below).
(§4) Like MTT, MTS is bioreduced by cells into a formazan product that is directly soluble in culture medium without processing, unlike MTT.
(§5) At the end of the cells treatment, 40 μl of a 0.22 μm filtered freshly combined solution of MTS (20 ml at 2 mg/ml, Ref G1111, Batch 235897, Exp March 2009, Promega, Charbonnières, France) and PMS (1 ml at 0.92 mg/ml, Ref P9625, Batch 065K0961, Sigma) in Dulbecco's Phosphate Buffered Saline (DPBS, Ref 17-513Q, Batch 6MB0152, Cambrex), were added in each well. Culture plates were incubated for 2 h at 37° C. Absorbency (OD) were measured at 490 nm in each well using VICTOR^3™ 1420 multilabeled counter (Wallac, PerkinElmer, Courtaboeuf, France).
(§6) 4.1. IC50 Data was Determined as in Example 1

[2] = system: Hs 445 cell line; assay type: cell-based, human; details: 4 h
Description: as §1, §2, §3, §4, §5, §6

[3] = system: MCF-7/mdr; experiment: MTS cytotoxicity assay, MCF-7/mdr; assay type: cell-based, human; details: IC50 resistant / IC50 sensitive line; doxorubicin resistance
Description: (§7) Tumor cells were plated in 96-well flat-bottom microtitration plates (Nunc, Dutscher, Brumath, France) and incubated at 37° C. for 24 hours before treatment in 190 μl of drug-free culture medium supplemented or not with 10% FBS for adherent or suspension growing cell lines, respectively.
(§8) The adherent cell lines were washed once with 200 μl FBS-free culture medium before treatment. Tumor cells were incubated for 4 hours with 10 concentrations of compounds in ¼ dilution step with a top dose of 400 μM (range 4×10^−4 to 4×10^−10 M), with 1% (final concentration) Triton X-100 as positive control and FBS-free culture medium as negative control. The cells (190 μl) were incubated in a 200 μl final volume of FBS-free culture medium containing test substances at 37° C. under 5% CO2.
(§9) Three independent experiments were performed, each concentration being tested in quadruplicate. Control cells were treated with vehicle alone. At the end of treatments, the cytotoxic activity was evaluated by a MTS assay (see § 3.3.).
as §4, §5
(§10) IC50: drug concentration to obtain a 50% inhibition of cell proliferation.
(§11) The dose-response curves were plotted using XLFit 3 (IDBS, United Kingdom). The IC50 determination values were calculated using the XLFit 3 software from semi-log curves. Individual IC50 determination values as well as mean and SD values were generated.
(§12) Resistance index was calculated using the following formula: […]
(§13) Resistance index was calculated for each compound for each couple of sensitive and resistant cell lines. Individual resistance index was calculated when IC50 values of both sensitive and corresponding resistant cell lines were determined within same experiment. In addition, resistance index was also calculated ratio of mean IC50 values obtained during three independent experiments.

[4] = system: HL-60/ADR; experiment: MTS cytotoxicity assay, HL-60/ADR; assay type: cell-based, human; details: IC50 resistant / IC50 sensitive line; doxorubicin resistance
Description: as §7, §8, §9, §4, §5, §10, §11, §12, §13

[5] = system: IGROV-1/CDDP; experiment: MTS cytotoxicity assay, IGROV-1/CDDP; assay type: cell-based, human; details: IC50 resistant / IC50 sensitive line; cisplatin resistance
Description: as §7, §8, §9, §4, §5, §10, §11, §12, §13

[6] = system: Hep G2 cell line; assay type: cell-based, human; details: 4 h
Description: as §7, §8, §9, §4, §5, §10, §11

[7] = system: T-47D cell line; assay type: cell-based, human; details: 4 h
Description: as §7, §8, §9, §4, §5, §10, §11

[8] = system: panel of 37 human cancer cell lines; assay type: cell-based; details: for IC50: 4 h; for IC50 range against 37 human cancer cell lines: conclusion
Description: The adherent cell lines were washed once with 200 μl FBS-free culture medium before treatment. […] compounds in ¼ dilution step with a top dose of 400 μM (range 4×10^−4 to 4×10^−10 M), with 1% (final concentration) Triton X-100 as positive control and FBS-free culture medium as negative control. The cells (190 μl) were incubated in a 200 μl final volume of FBS-free culture medium containing test substances at 37° C. under 5% CO2.
as §9, §4, §5, §10, §11

[9] = system: panel of 10 lymphoma cell lines; assay type: cell-based, human; details: conclusion
Description: as §1
[…] compounds in ¼ dilution step with a top dose of 400 μM (range 4×10^−4 to […]), with 1% (final concentration) Triton X-100 as positive control and FBS-free culture medium as negative control. The cells (190 μl) were incubated in a 200 μl final volume of FBS-free culture medium containing test substances at 37° C. under 5% CO2.
as §3, §4, §5, §6

[10] = system: U-937 cell line; assay type: cell-based, human; details: 4 h
Description: as §1, §2, §3, §4, §5, §6

[11] = system: CCRF-CEM/VLB; experiment: MTS cytotoxicity assay, CCRF-CEM/VLB; assay type: cell-based, human; details: IC50 resistant / IC50 sensitive line
Description: as §7
The adherent cell lines were washed once with 200 μl FBS-free culture medium before treatment. Tumor cells were incubated for 4 hours with 10 concentrations of compounds in ¼ dilution step with a top dose of 400 μM (range 4×10^−4 to 4×10^−10 M), with 1% (final concentration) Triton X-100 as positive control and FBS-free culture medium as negative control. […]
Three independent experiments were performed, each concentration being tested in quadruplicate. […] At the end of treatments, the cytotoxic activity was evaluated by a MTS assay (see § 3.3.). […]
At the end of the cells treatment, 40 μl of a 0.22 μm filtered freshly combined solution of MTS (20 ml at 2 mg/ml, Ref G1111, Batch 235897, Exp March 2009, Promega, Charbonnières, France) and PMS (1 ml at 0.92 mg/ml, Ref P9625, Batch 065K0961, Sigma) in Dulbecco's Phosphate Buffered Saline (DPBS, Ref 17-513Q, Batch 6MB0152, Cambrex), were added in each well. […] Absorbency (OD) were measured at 490 nm in each well using VICTOR^3™ 1420 multilabeled counter (Wallac, PerkinElmer, Courtaboeuf, France). […]
as §12

[12] = system: U-87 MG cell line; assay type: cell-based, human; details: 4 h
Description: as §7, §8, §9, §4, §5, §10, §11

Compound | IC50 [1] [µM] | IC50 [2] [µM] | Resistance index (RI), MCF-7/mdr [3] | Resistance index (RI), HL-60/ADR [4] | Resistance index (RI), IGROV-1/CDDP [5] | IC50 [6] [µM] | IC50 [7] [µM] | IC50 [8] [µM] | IC50 range against 37 human cancer cell lines [8] | IC50 range against 10 human lymphoma cell lines [9] | IC50 [10] [µM] | Resistance index (RI), CCRF-CEM/VLB [11] | IC50 [12] [µM]
N=C(N)NCCC[C@H](NC(=O)[C@H](Cc1c[nH]c2ccccc12)NC(=O)[C@H](Cc1c[nH]c2ccccc12)NC(=O)[C@H](CCCNC(=N)N)NC(=O)[C@H](CCCNC(=N)N)NC(=O)[C@@H](NC(=O)[C@H](Cc1c[nH]c2ccccc12)NC(=O)[C@H](CCCNC(=N)N)NC(=O)[C@@H](N)CCCNC(=N)N)C(c1ccccc1)c1ccccc1)C(N)=O [LTX-320, R-R-W-Dip-R-R-W-W-R-NH2] (H-RRW[Dip]RRWWR-NH2; N-terminus assumed) | 11.3 ± 3.42 | 2.22 | 1.19 | 0.90 | 0.49 | 16.6 ± 3.15 | 3.46 ± 0.22 | 7.58 ± 2.79 | micromolar to ten micromolar range | micromolar range |  |  | 
NCCCC[C@H](NC(=O)[C@H](Cc1c[nH]c2ccccc12)NC(=O)[C@H](CCCCN)NC(=O)[C@H](CCCCN)NC(=O)[C@@H](NC(=O)[C@H](Cc1c[nH]c2ccccc12)NC(=O)[C@H](CCCCN)NC(=O)[C@H](CCCCN)NC(=O)[C@@H](N)Cc1c[nH]c2ccccc12)C(c1ccccc1)c1ccccc1)C(N)=O [LTX-302, W-K-K-W-Dip-K-K-W-K-NH2] (H-WKKW[Dip]KKWK-NH2; N-terminus assumed) | 12.5 ± 3.52 |  | 1.23 | 1.31 | 0.33 | 20.1 ± 4.07 | 4.83 ± 0.96 | 12.1 ± 4.27 | micromolar to ten micromolar range | micromolar range | 5.3 ± 2.02 |  | 
NCCCC[C@@H](N)C(=O)N[C@H](CCCCN)C(=O)N[C@H](Cc1ccc(-c2ccccc2)cc1)C(=O)N[C@H](Cc1c[nH]c2ccccc12)C(=O)N[C@H](CCCCN)C(=O)N[C@H](CCCCN)C(=O)N[C@H](Cc1c[nH]c2ccccc12)C(=O)N[C@H](Cc1c[nH]c2ccccc12)C(=O)N[C@H](CCCCN)C(N)=O [LTX-329, k-k-bip-w-k-k-w-w-k-NH2] (H-[dK][dK][dBip][dW][dK][dK][dW][dW][dK]-NH2; N-terminus assumed) | 8.7 ± 1.7 | 2.46 | 1.07 | 0.80 | 0.46 |  | 2.43 ± 0.34 | 8.17 ± 3.2 | micromolar to ten micromolar range | micromolar range |  | 0.76 | 16.9 ± 1.18
